Results taken from PMC4202157, “Amphipathic tail-anchoring peptide is a promising therapeutic agent for prostate cancer treatment” (Oncotarget, 2014).
“Also recorded” adds a separate entry of the source. Bridge positions count the residues as written; N and C are the ends. Peptide text beside a SMILES is read from it.

Tests used:
[1] = Precipitation / aggregation of peptide in cell culture medium; format: physicochemical; details: for Precipitation in normal culture medium: 200 μM peptide added to DU145 cells in normal culture medium, 37 °C, 24 hours incubation, microscopy
DU145 cells [2] = assay: MTT cell viability assay, DU145 cells; format: cell-based
Method: (§1) The human esophageal squamous carcinoma cell line KYSE-150 was provided by Dr. Chung S. Yang (Rutgers University, Piscataway, NJ)[41, 42]. DU145, LNCaP, PC-3, K562, U87 and MDA-MB-231 cells were purchased from American Type Culture Collection and cultured with designated medium, supplemented with 10% fetal bovine serum, 100 unit/ml penicillin, and 100 μg/ml streptomycin. Cell viability was determined by MTT assay. Cells were plated at 1,000-1,500 cells per well in a 96-well plate and then treated with indicated amounts of ATAP peptides for 48 hours. Then, 20 μl (5 mg/ml in PBS) MTT [3-(4,5-dimethylthiazol-2-yl)-2,5-diphenyltetrazolium bromide] (Sigma Chemical Co., St. Louis, Mo.) was added to each well. After another 4 hours, 150 μL DMSO was added to dissolve formazan crystals in each well, and the absorbance were recorded at 570 nm.

LNCaP cells = format: cell-based; details: 48 h
Method: as §1

[3] = tested on: MDA-MB-231 breast adenocarcinoma cells; format: cell-based; details: 48 h
Method: as §1

PC-3 cells = format: cell-based; details: 48 h
Method: as §1

U87 glioblastoma cells = format: cell-based; details: 48 h
Method: as §1

K562 cells = format: cell-based, human; details: 48 h
Method: as §1

[4] = tested on: KYSE-150 esophageal squamous carcinoma cells; format: cell-based, human; details: 48 h
Method: as §1

SV129 mice = assay: Repetitive intravenous injection toxicity in SV129 mice; format: in vivo
Method: For further evaluation of the in vivo toxic effect of ATAP-iRGD, repetitive injections of ATAP-iRGD into the immune intact SV129 mice were conducted.

DU145 xenograft = DU145 xenograft in nude mice; format: in vivo, NCR nude mice
Method: (§2) Handling of animals was performed in accordance with protocols approved by the Institutional Animal Care and Use Committee (IACUC) of the Ohio State University. Five week-old NCR nude mice (Taconic Farms, Germantown, NY) were implanted subcutaneously in both flanks with 2 ×10^6 DU145 or PC-3 cells. After tumors reached 4 to 7 mm in diameter (about 9~14 days after implantation), the mice were randomly divided into two groups so that both the mean and the variance of the tumor diameters are of no significant difference among the groups prior to treatment. The ATAP-iRGD-M8 peptide was injected through tail vein once every two days during the whole procedure. Tumor volume was measured by a digital caliper (Thermo Fisher Scientific, Waltham, MA). Tumor volume was determined from the orthogonal dimensions (length, width) using the formula: tumor volume = 1/2(length × width^2). According to the IACUC guideline, the experiments will be terminated when tumors reached 1.5 cm in diameter. At the end of experiment, mice were sacrificed and xenografts were removed and weighted. For toxicological evaluation of peptide treatments, mouse body weights were measured every four days. […]

PC-3 xenograft = PC-3 xenograft in nude mice; format: in vivo, NCR nude mice; details: tail vein injection once every two days
Method: as §2

[5] = tested on: kidney, heart, liver, lung and spleen; assay: H&E organ pathology in xenograft nude mice; format: in vivo, NCR nude mice; details: xenograft nude mice after peptide treatment, vs control
Method: as §2

DU145 cells [6] = assay: Live-cell confocal imaging of peptide uptake and mitochondria localization; format: cell-based; details: 2 μM Dylight488-labeled peptide, Mito Tracker Red, 50 μM Q-VD-OPh, confocal microscopy
Method: ATAP-iRGD and ATAP-iRGD-M8 peptides were labeled with an amine-reactive DyLight488 fluorophore (Pierce Biotechnology, Rockford, USA) according to the manufacturer's instructions. DU145 cells were cultured in the presence of 2 μM Dylight488-labeled ATAP-iRGD or ATAP-iRGD-M8 plus 50 nM Mito Tracker Red (Molecular Probes Inc., Eugene, OR). 50 μM Q-VD-OPh was added to the culture medium in order to prevent cell apoptosis. Sample images were taken by BioRad 2100 Radiance laser scanning confocal microscope (Bio-Rad Laboratories, Hercules, CA) with a 60×, 1.3NA oil immersion objective (Nikon Instruments Inc., Melville, NY).

Q: Which “Precipitation in normal culture medium” value [1] does the source give for “Ac-KFEPKSGWMTFLEVTGKIAEMLSLLKQYCRGDKGPDC-NH2 (disulfide 29-37 (inferred)) [Mutant M7, ATAP-iRGD with acetylated amino terminus and amidated carboxyl terminus]” here?
A: precipitate; also recorded: pronounced precipitation

Q: With `CC[C@H](C)[C@H](NC(=O)[C@H](CCCCN)NC(=O)CNC(=O)[C@@H](NC(=O)[C@@H](NC(=O)[C@H](CCC(=O)O)NC(=O)[C@H](CC(C)C)NC(=O)[C@H](Cc1ccccc1)NC(=O)[C@@H](NC(=O)[C@H](CCSC)NC(=O)[C@H](Cc1c[nH]c2ccccc12)NC(=O)CNC(=O)[C@H](CO)NC(=O)[C@H](CCCCN)NC(=O)[C@@H]1CCCN1C(=O)[C@H](CCC(=O)O)NC(=O)[C@H](Cc1ccccc1)NC(=O)[C@@H](N)CCCCN)[C@@H](C)O)C(C)C)[C@@H](C)O)C(=O)N[C@@H](C)C(=O)N[C@@H](CCC(=O)O)C(=O)N[C@@H](CCSC)C(=O)N[C@@H](CC(C)C)C(=O)N[C@@H](CO)C(=O)N[C@@H](CC(C)C)C(=O)N[C@@H](CC(C)C)C(=O)N[C@@H](CC(C)C)C(=O)N[C@@H](CCC(N)=O)C(=O)N[C@@H](Cc1ccc(O)cc1)C(=O)N[C@H]1CSSC[C@@H](C(=O)O)NC(=O)[C@H](CC(=O)O)NC(=O)[C@@H]2CCCN2C(=O)CNC(=O)[C@H](CCCCN)NC(=O)[C@H](CC(=O)O)NC(=O)CNC(=O)[C@H](CCCNC(=N)N)NC1=O` [Mutant M4] (H-KFEPKSGWMTFLEVTGKIAEMLSLLLQYCRGDKGPDC-OH; disulfide 29-37) as the compound, how does the “Cytotoxic activity in DU145 cells, in words” value (DU145 cells [2]; MTT assay, 48 hours, unconjugated ATAP tested at 0.01 – 100 μM) read?
A: complete abolishment of the cytotoxic activity

Q: What does the source list for `CC[C@H](C)[C@H](NC(=O)[C@H](CCCCN)NC(=O)CNC(=O)[C@@H](NC(=O)[C@@H](NC(=O)[C@H](CCC(=O)O)NC(=O)[C@H](CC(C)C)NC(=O)[C@H](Cc1ccccc1)NC(=O)[C@@H](NC(=O)[C@H](CCSC)NC(=O)[C@H](Cc1c[nH]c2ccccc12)NC(=O)CNC(=O)[C@H](CO)NC(=O)[C@H](CCCCN)NC(=O)[C@@H]1CCCN1C(=O)[C@H](CCC(=O)O)NC(=O)[C@H](Cc1ccccc1)NC(=O)[C@@H](N)CCCCN)[C@@H](C)O)C(C)C)[C@@H](C)O)C(=O)N[C@@H](C)C(=O)N[C@@H](CCC(=O)O)C(=O)N[C@@H](CCSC)C(=O)N[C@@H](CC(C)C)C(=O)N[C@@H](CO)C(=O)N[C@@H](CC(C)C)C(=O)N[C@@H](CC(C)C)C(=O)N[C@@H](CCCCN)C(=O)N[C@@H](CCC(N)=O)C(=O)N[C@@H](Cc1ccc(O)cc1)C(=O)N[C@H]1CSSC[C@@H](C(=O)O)NC(=O)[C@H](CC(=O)O)NC(=O)[C@@H]2CCCN2C(=O)CNC(=O)[C@H](CCCCN)NC(=O)[C@H](CC(=O)O)NC(=O)CNC(=O)[C@H](CCCNC(=N)N)NC1=O` [ATAP-iRGD] (H-KFEPKSGWMTFLEVTGKIAEMLSLLKQYCRGDKGPDC-OH; disulfide 29-37)?
A: IC50 (DU145 cells [2]; 48 h): 1.6 ± 0.5 µM; IC50 (LNCaP cells): 7.1 ± 1.7 µM; IC50 [3]: 5.9 ± 1.1 µM; IC50 (PC-3 cells): 9.2 ± 1.6 µM; IC50 (U87 glioblastoma cells): 10.3 ± 2.6 µM; IC50 (K562 cells): 107 ± 41 µM; IC50 [4]: 4.4 ± 0.5 µM; Signs of toxicity on repetitive injection (SV129 mice; immune intact SV129 mice, repetitive intravenous injections): no visible signs or symptoms of toxicity; H&E pathology of kidney, heart, liver, lung and spleen (SV129 mice; mouse, in vivo, iv): no significant pathological abnormalities

Q: Which “Precipitation in normal culture medium” value [1] does the source give for “Ac-KKFEPKSGWMTFLEVTGKIAEMLSLLKQYCRGDKGPDC-NH2 (disulfide 30-38 (inferred)) [ATAP-iRGD-M8, ATAP-iRGD with one more Lys, acetylated and amidated termini]” here?
A: no precipitation

Q: And the “Concentration at which no precipitation was observed” value ([1]; normal cell culture medium, neutral pH, prolonged incubation)?
A: above 200 μM

Q: What about the “DU145 xenograft volume vs saline” value (DU145 xenograft; 21 mg/kg via tail vein once every two days, n=6 treated, n=9 saline) of the same compound?
A: significantly smaller

Q: And the “DU-145 xenograft weight at end of experiment” value (DU145 xenograft; xenografts dissected and weighted, mean±SEM, P<0.05 (Fig. S2))?
A: significantly suppressed DU-145 tumor growth

Q: What about the “PC-3 xenograft tumor growth vs saline” value (PC-3 xenograft) of the same compound?
A: significant suppression of tumor growth

Q: And the “H&E pathology of kidney, heart, liver, lung and spleen” value [5]?
A: no obvious changes

Q: And the “Cell uptake and mitochondria localization” value (DU145 cells [6])?
A: clear mitochondria target pattern
